Assay results reported in the supplement of paper PMC13380429.

Legend:
Details in all cases: 72 h
[1] = system: HepG2; experiment: drug sensitivity score (DSS) for viability; higher = more toxic; extreme values may be limits of the assay
[2] = system: Vero E6; experiment: as above
[3] = system: Calu-3; experiment: as above
[4] = system: U2OS; experiment: as above
[5] = system: HepG2; experiment: relative viability EC50 (midpoint between 100% and the lowest measured viability); higher = less toxic
[6] = system: U2OS; experiment: as above
[7] = system: HepG2; experiment: cell viability relative to DMSO; higher = less toxic
[8] = system: Vero E6; experiment: as above
[9] = system: U2OS; experiment: as above
[10] = system: Vero E6; experiment: relative viability EC50 (midpoint between 100% and the lowest measured viability); higher = less toxic
[11] = system: Calu-3; experiment: cell viability relative to DMSO; higher = less toxic
[12] = system: Caco-2; experiment: as above
[13] = system: Caco-2; experiment: drug sensitivity score (DSS) for viability; higher = more toxic; extreme values may be limits of the assay
[14] = system: Calu-3; experiment: relative viability EC50 (midpoint between 100% and the lowest measured viability); higher = less toxic

Structure (SMILES): Nc1ccc(S(=O)(=O)Nc2cnc3ccccc3n2)cc1 [sulfaquinoxaline]
- drug sensitivity score [1]: 0
- drug sensitivity score [2]: 0
- drug sensitivity score [3]: 0.4
- drug sensitivity score [4]: 0

Structure (SMILES): N=C(N)N [guanidine]
- relative viability EC50 [5]: > 10 µM
- relative viability EC50 [6]: > 10 µM
- cell viability ([7]; 1 nM): 101%
- cell viability ([7]; 10 nM): 117%
- cell viability ([7]; 100 nM): 101%
- cell viability ([7]; 1000 nM): 96.2%
- cell viability ([7]; 10000 nM): 105%
- cell viability ([8]; 1 nM): 76.8%
- cell viability ([8]; 10 nM): 106%
- cell viability ([8]; 100 nM): 82.2%
- cell viability ([8]; 1000 nM): 110%
- cell viability ([8]; 10000 nM): 69.3%
- cell viability ([9]; 1 nM): 105%
- cell viability ([9]; 10 nM): 106%
- cell viability ([9]; 100 nM): 105%
- cell viability ([9]; 1000 nM): 99.9%
- cell viability ([9]; 10000 nM): 108%
- drug sensitivity score [1]: 0
- drug sensitivity score [2]: 0.9
- drug sensitivity score [4]: 0

Structure (SMILES): CC1(N)CCN(c2cnc(-c3cccc(Cl)c3Cl)c(N)n2)CC1 [SHP099]
- relative viability EC50 [5]: > 10 µM
- relative viability EC50 [10]: > 10 µM
- relative viability EC50 [6]: > 10 µM
- cell viability ([7]; 1 nM): 91.2%
- cell viability ([7]; 10 nM): 84.8%
- cell viability ([7]; 100 nM): 103%
- cell viability ([7]; 1000 nM): 93.5%
- cell viability ([7]; 10000 nM): 82%
- cell viability ([8]; 1 nM): 103%
- cell viability ([8]; 10 nM): 93.2%
- cell viability ([8]; 100 nM): 106%
- cell viability ([8]; 1000 nM): 92.2%
- cell viability ([8]; 10000 nM): 78.9%
- cell viability ([11]; 1 nM): 101%
- cell viability ([11]; 10 nM): 98.3%
- cell viability ([11]; 100 nM): 104%
- cell viability ([11]; 1000 nM): 82.2%
- cell viability ([11]; 10000 nM): 64.7%
- cell viability ([12]; 1 nM): 94.1%
- cell viability ([12]; 10 nM): 113%
- cell viability ([12]; 100 nM): 90.9%
- cell viability ([12]; 1000 nM): 91.9%
- cell viability ([12]; 10000 nM): 56.4%
- cell viability ([9]; 1 nM): 93.8%
- cell viability ([9]; 10 nM): 95.4%
- cell viability ([9]; 100 nM): 91.9%
- cell viability ([9]; 1000 nM): 98.4%
- cell viability ([9]; 10000 nM): 90.2%
- drug sensitivity score [1]: 0.2
- drug sensitivity score [2]: 1.6
- drug sensitivity score [3]: 3.9
- drug sensitivity score [13]: 3.6
- drug sensitivity score [4]: 0

Structure (SMILES): OC[C@H]1O[C@H](O[C@H]2[C@H](O)[C@@H](O)[C@H](O)O[C@@H]2CO)[C@H](O)[C@@H](O)[C@@H]1O [D-(+)-maltose]
- drug sensitivity score [1]: 0
- drug sensitivity score [2]: 0
- drug sensitivity score [4]: 0

Structure (SMILES): COc1ccc(C(C)(C)C)cc1CN[C@H]1C2CCN(CC2)[C@H]1C(c1ccccc1)c1ccccc1 [maropitant]
- relative viability EC50 [5]: 3.17 µM
- relative viability EC50 [14]: 3.24 µM
- cell viability ([7]; 1 nM): 107%
- cell viability ([7]; 10 nM): 104%
- cell viability ([7]; 100 nM): 98.9%
- cell viability ([7]; 1000 nM): 100%
- cell viability ([7]; 10000 nM): 11.6%
- cell viability ([8]; 1 nM): 100%
- cell viability ([8]; 10 nM): 106%
- cell viability ([8]; 100 nM): 100%
- cell viability ([8]; 1000 nM): 101%
- cell viability ([8]; 10000 nM): 62.6%
- cell viability ([11]; 1 nM): 108%
- cell viability ([11]; 10 nM): 104%
- cell viability ([11]; 100 nM): 110%
- cell viability ([11]; 1000 nM): 101%
- cell viability ([11]; 10000 nM): 1.7%
- cell viability ([12]; 1 nM): 103%
- cell viability ([12]; 10 nM): 96.4%
- cell viability ([12]; 100 nM): 101%
- cell viability ([12]; 1000 nM): 103%
- cell viability ([12]; 10000 nM): 67.4%
- cell viability ([9]; 1 nM): 99.5%
- cell viability ([9]; 10 nM): 98.9%
- cell viability ([9]; 100 nM): 101%
- cell viability ([9]; 1000 nM): 93.9%
- cell viability ([9]; 10000 nM): 67.3%
- drug sensitivity score [1]: 4.9
- drug sensitivity score [2]: 1.7
- drug sensitivity score [3]: 5.4
- drug sensitivity score [13]: 1.3
- drug sensitivity score [4]: 2.5

Structure (SMILES): C#Cc1cccc(Nc2ncnc3cc(OCCOC)c(OCCOC)cc23)c1 [erlotinib]
- relative viability EC50 [10]: 1.36 µM
- relative viability EC50 [14]: 0.453 µM
- relative viability EC50 [6]: > 10 µM
- cell viability ([7]; 1 nM): 108%
- cell viability ([7]; 10 nM): 122%
- cell viability ([7]; 100 nM): 104%
- cell viability ([7]; 1000 nM): 97.8%
- cell viability ([7]; 10000 nM): 58.2%
- cell viability ([8]; 1 nM): 111%
- cell viability ([8]; 10 nM): 104%
- cell viability ([8]; 100 nM): 92%
- cell viability ([8]; 1000 nM): 73.4%
- cell viability ([8]; 10000 nM): 26.8%
- cell viability ([11]; 1 nM): 107%
- cell viability ([11]; 10 nM): 109%
- cell viability ([11]; 100 nM): 86.2%
- cell viability ([11]; 1000 nM): 52%
- cell viability ([11]; 10000 nM): 30.1%
- cell viability ([12]; 1 nM): 105%
- cell viability ([12]; 10 nM): 92.5%
- cell viability ([12]; 100 nM): 98.2%
- cell viability ([12]; 1000 nM): 79.7%
- cell viability ([12]; 10000 nM): 54.2%
- cell viability ([9]; 1 nM): 96.7%
- cell viability ([9]; 10 nM): 96.4%
- cell viability ([9]; 100 nM): 94.2%
- cell viability ([9]; 1000 nM): 93.5%
- cell viability ([9]; 10000 nM): 82.9%
- drug sensitivity score [1]: 2.4
- drug sensitivity score [2]: 7.1
- drug sensitivity score [3]: 10.6
- drug sensitivity score [13]: 4.7
- drug sensitivity score [4]: 0.4

Structure (SMILES): CCn1c(-c2nonc2N)nc2c(C#CC(C)(C)O)ncc(OC[C@H]3CCCNC3)c21
- relative viability EC50 [5]: > 10 µM
- relative viability EC50 [10]: > 10 µM
- relative viability EC50 [6]: > 10 µM
- cell viability ([7]; 1 nM): 94.8%
- cell viability ([7]; 10 nM): 98.1%
- cell viability ([7]; 100 nM): 96.5%
- cell viability ([7]; 1000 nM): 94.5%
- cell viability ([7]; 10000 nM): 99.4%
- cell viability ([8]; 1 nM): 96.5%
- cell viability ([8]; 10 nM): 96%
- cell viability ([8]; 100 nM): 95.5%
- cell viability ([8]; 1000 nM): 95.1%
- cell viability ([8]; 10000 nM): 111%
- cell viability ([11]; 1 nM): 102%
- cell viability ([11]; 10 nM): 98.2%
- cell viability ([11]; 100 nM): 92.2%
- cell viability ([11]; 1000 nM): 69.5%
- cell viability ([11]; 10000 nM): 73.5%
- cell viability ([12]; 1 nM): 92.9%
- cell viability ([12]; 10 nM): 86.7%
- cell viability ([12]; 100 nM): 101%
- cell viability ([12]; 1000 nM): 72.1%
- cell viability ([12]; 10000 nM): 69.3%
- cell viability ([9]; 1 nM): 96.3%
- cell viability ([9]; 10 nM): 93.3%
- cell viability ([9]; 100 nM): 98.1%
- cell viability ([9]; 1000 nM): 87.5%
- cell viability ([9]; 10000 nM): 85.9%
- drug sensitivity score [1]: 0
- drug sensitivity score [2]: 0
- drug sensitivity score [3]: 6.3
- drug sensitivity score [13]: 4.7
- drug sensitivity score [4]: 0.3
